Experimental data published in patent US12152048B2, “Nitroxoline prodrug and use thereof” (Jiangsu Yahong Meditech Co., Ltd., priority 2018, dated 2024).
Values after ≈ are worked out from the molar mass of the structure shown.

How the values were obtained:
[1] = Stability in human plasma
Text: (§1) Experimental instruments: thermostatic shaker (SHA-B, Guohua Electric Appliance Co., Ltd.); centrifuge (5810R, Eppendorf); mass spectrometry (AP4000, Applied Biosystems, USA); liquid chromatography (LC-30AD, Shimadzu); sample injector (CTC Analytics AG System, CTC).
(§2) Test animals: plasma of human (batch number: BRH1343165), rat (batch number: RAT336728), mouse (batch number: MSE280000), dog (batch number: BGL99137) and monkey (batch number: PH-Monkey-20180821) are purchased from Shanghai Sixin Biological Technology Co., Ltd.
(§3) Experimental process: the compound of the present invention was dissolved in an organic solvent to obtain a 1 mM working solution. 3 μL of the working solution were added to 597 μL of pre-incubated human or rat plasma and mixed well. 50 μL of the solution were immediately taken out as the 0 minute sample. The remaining sample was incubated at 37° C., and 50 μL of sample were taken out at 15, 30, 60 and 120 minutes respectively. All the samples taken out were immediately processed to precipitate protein, and centrifuged to obtain a supermate for the determination of the compound concentration by LC/MS/MS.

[2] = Stability in monkey plasma; assay type: in vitro ADME
Text: as §1, §2, §3

[3] = Stability in human liver microsome; conditions: 2 μM, 37° C., 30 minutes
[4] = Stability in dog liver microsome; conditions: 2 μM, 37° C., 30 minutes
[5] = Stability in liver microsome, overall conclusion (species not stated); assay type: in vitro ADME; conditions: conclusion in words
[6] = Stability in plasma, overall conclusion (species not stated); conditions: conclusion in words
[7] = Stability in rat plasma
[8] = Determination of water solubility in phosphate buffer; assay type: physicochemical; conditions: aqueous buffer, thermodynamic from solid; phosphate buffer pH 7.4, room temperature, 24 hours
Summary of the method: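 Thermodynamic solubility: compound concentration measured by LC/MS/MS in the vacuum filtrate after 24 h shaking at room temperature of 2 mg powder in 500 μL phosphate buffer at pH 1.2, 4.5, 6.8 or 7.4.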

[9] = Stability in mouse plasma; assay type: in vitro ADME
Text: as §1, §2, §3

[10] = Stability in dog plasma; assay type: in vitro ADME
Text: as §1, §2, §3

[11] = Stability in mouse liver microsome; assay type: in vitro ADME; conditions: 2 μM, 37° C., 30 minutes
[12] = Stability in rat liver microsome; conditions: 2 μM, 37° C., 30 minutes
Experimental: Experimental instruments: thermostatic shaker (SHA-B, Guohua Electric Appliance Co., Ltd.); centrifuge (5810R, Eppendorf); mass spectrometry (API4000, Applied Biosystems, USA); liquid chromatography (LC-30AD, Shimadzu); sample injector (CTC Analytics AG System, CTC).
Experimental process: 25 μg/mL alamethicin (Aldrich), 5 mM magnesium chloride and 0.5 mg/mL microsome (XENOTECH) were added to 100 mM phosphate buffer to obtain a coenzyme-free reaction solution. A portion of the coenzyme-free reaction solution was added with 1 mM reductive nicotinamide adenine dinucleotide phosphate (Aldrich) and 5 mM uridine diphosphate glucuronic acid (Aldrich) to obtain a coenzyme-containing reaction solution. The working solution of the compound of the present invention was added to the two reaction solutions so that the final concentration of the compound was 2 μM. Immediately after mixing well, 50 μL of the solution were taken out as the 0 minute sample, and 50 μL of the remaining sample were taken out after incubating at 37° C. for 30 minutes. All the samples taken out were immediately processed to precipitate protein, and centrifuged to obtain a supernate for the determination of the compound concentration by LC/MS/MS.

Structure (SMILES): CN1CCN(C(=O)OCOc2ccc([N+](=O)[O-])c3cccnc23)CC1 [Compound 6, (5-nitroquinolin-8-yloxy)methyl 4-methylpiperazine-1-carboxylate]
- Percentage of the compound remaining in plasma ([1]; 0 minute): 100.0%
- Percentage of the compound remaining in plasma ([1]; 37° C., 15 minutes): 97.5%
- Percentage of the compound remaining in plasma ([1]; 37° C., 30 minutes): 106.0%
- Percentage of the compound remaining in plasma ([1]; 37° C., 60 minutes): 95.0%
- Percentage of the compound remaining in plasma ([1]; 37° C., 120 minutes): 99.3%
- Percentage of the compound remaining in plasma ([2]; 0 minute): 100.0%
- Percentage of the compound remaining in plasma ([2]; 37° C., 15 minutes): 98.3%
- Percentage of the compound remaining in plasma ([2]; 37° C., 30 minutes): 101.1%
- Percentage of the compound remaining in plasma ([2]; 37° C., 60 minutes): 91.6%
- Percentage of the compound remaining in plasma ([2]; 37° C., 120 minutes): 98.9%
- Percentage of the compound remaining in human liver microsome ([3]; with coenzyme): 109.46%
- Percentage of the compound remaining in human liver microsome ([3]; without coenzyme): 118.37%
- Percentage of the compound remaining in dog liver microsome ([4]; with coenzyme): 38.76%
- Percentage of the compound remaining in dog liver microsome ([4]; without coenzyme): 114.53%
- stability in microsome [5]: high stability
- stability in plasma [6]: high stability
- Percentage of the compound remaining in plasma ([7]; 0 minute): 100.0%
- Percentage of the compound remaining in plasma ([7]; 37° C., 15 minutes): 95.5%
- Percentage of the compound remaining in plasma ([7]; 37° C., 30 minutes): 98.8%
- Percentage of the compound remaining in plasma ([7]; 37° C., 60 minutes): 90.2%
- Percentage of the compound remaining in plasma ([7]; 37° C., 120 minutes): 89.4%
- solubility at 24 h [8]: 985 µg/mL (≈ 2840 µM)
- Percentage of the compound remaining in plasma ([9]; 0 minute): 100.0%
- Percentage of the compound remaining in plasma ([9]; 37° C., 15 minutes): 97.7%
- Percentage of the compound remaining in plasma ([9]; 37° C., 30 minutes): 95.4%
- Percentage of the compound remaining in plasma ([9]; 37° C., 60 minutes): 98.9%
- Percentage of the compound remaining in plasma ([9]; 37° C., 120 minutes): 92.1%
- Percentage of the compound remaining in plasma ([10]; 0 minute): 100.0%
- Percentage of the compound remaining in plasma ([10]; 37° C., 15 minutes): 111.5%
- Percentage of the compound remaining in plasma ([10]; 37° C., 30 minutes): 111.9%
- Percentage of the compound remaining in plasma ([10]; 37° C., 60 minutes): 114.6%
- Percentage of the compound remaining in plasma ([10]; 37° C., 120 minutes): 105.9%
- Percentage of the compound remaining in mouse liver microsome ([11]; with coenzyme): 51.08%
- Percentage of the compound remaining in mouse liver microsome ([11]; without coenzyme): 116.52%
- Percentage of the compound remaining in rat liver microsome ([12]; with coenzyme): 75.71%
- Percentage of the compound remaining in rat liver microsome ([12]; without coenzyme): 99.73%

Structure (SMILES): O=C(OCOc1ccc([N+](=O)[O-])c2cccnc12)N1CCOCC1 [Compound 7, (5-nitroquinolin-8-yloxy)methyl morpholine-4-carboxylate]
- Percentage of the compound remaining in plasma ([1]; 0 minute): 100.0%
- Percentage of the compound remaining in plasma ([1]; 37° C., 15 minutes): 93.5%
- Percentage of the compound remaining in plasma ([1]; 37° C., 30 minutes): 97.8%
- Percentage of the compound remaining in plasma ([1]; 37° C., 60 minutes): 99.6%
- Percentage of the compound remaining in plasma ([1]; 37° C., 120 minutes): 105.2%
- Percentage of the compound remaining in plasma ([2]; 0 minute): 100.0%
- Percentage of the compound remaining in plasma ([2]; 37° C., 15 minutes): 96.5%
- Percentage of the compound remaining in plasma ([2]; 37° C., 30 minutes): 105.9%
- Percentage of the compound remaining in plasma ([2]; 37° C., 60 minutes): 99.0%
- Percentage of the compound remaining in plasma ([2]; 37° C., 120 minutes): 98.7%
- Percentage of the compound remaining in human liver microsome ([3]; with coenzyme): 91.44%
- Percentage of the compound remaining in human liver microsome ([3]; without coenzyme): 96.71%
- Percentage of the compound remaining in dog liver microsome ([4]; with coenzyme): 28.07%
- Percentage of the compound remaining in dog liver microsome ([4]; without coenzyme): 83.78%
- stability in microsome [5]: high stability
- stability in plasma [6]: high stability
- Percentage of the compound remaining in plasma ([7]; 0 minute): 100.0%
- Percentage of the compound remaining in plasma ([7]; 37° C., 15 minutes): 94.0%
- Percentage of the compound remaining in plasma ([7]; 37° C., 30 minutes): 98.6%
- Percentage of the compound remaining in plasma ([7]; 37° C., 60 minutes): 95.0%
- Percentage of the compound remaining in plasma ([7]; 37° C., 120 minutes): 91.6%
- solubility at 24 h [8]: 134 µg/mL (≈ 403 µM)
- Percentage of the compound remaining in plasma ([9]; 0 minute): 100.0%
- Percentage of the compound remaining in plasma ([9]; 37° C., 15 minutes): 98.5%
- Percentage of the compound remaining in plasma ([9]; 37° C., 30 minutes): 98.8%
- Percentage of the compound remaining in plasma ([9]; 37° C., 60 minutes): 96.1%
- Percentage of the compound remaining in plasma ([9]; 37° C., 120 minutes): 89.3%
- Percentage of the compound remaining in plasma ([10]; 0 minute): 100.0%
- Percentage of the compound remaining in plasma ([10]; 37° C., 15 minutes): 104.0%
- Percentage of the compound remaining in plasma ([10]; 37° C., 30 minutes): 107.2%
- Percentage of the compound remaining in plasma ([10]; 37° C., 60 minutes): 106.5%
- Percentage of the compound remaining in plasma ([10]; 37° C., 120 minutes): 101.8%
- Percentage of the compound remaining in mouse liver microsome ([11]; with coenzyme): 55.15%
- Percentage of the compound remaining in mouse liver microsome ([11]; without coenzyme): 82.50%
- Percentage of the compound remaining in rat liver microsome ([12]; with coenzyme): 69.51%
- Percentage of the compound remaining in rat liver microsome ([12]; without coenzyme): 90.84%
